Target: T1, human KCNQ2 and KCNQ3 (Homo sapiens, UniProt O43525+O43526)
T1 construct: expressed in transfected cells; host or cells: HEK293
Assay: KCNQ 2/3 channel activation, thallium flux FLIPR assay (BTC-AM dye) in HEK293 cells
Format: cell-based
Settings: for Emax: HEK293, maximum response relative to response of retigabine at 10 μM set at 100%, read-out: Max response; for EC50: HEK293 cells stably expressing human KCNQ2 and KCNQ3, compound incubated 4 minutes, Tl+ flux fluorescence
Method: The following example describes the assay that can be used to identify compounds that activate KCNQ 2/3 channels.
HEK293 cells stably expressing human KCNQ2 and KCNQ3 were seeded in 96-well, black-walled, clear-bottomed, poly-D-lysine coated plates (BD Biosciences, Bedford, Mass.) at a density of 1×10^5 cells per well 24 hours before the assay. On the assay day, BTC-AM dye (Invitrogen, Carlsbad, Calif.) was loaded into the cells by replacing the cell culture medium with 100 μL/well of 4 μM dye in DPBS. Dye loading was allowed to proceed for 2 hours at room temperature and then cells were washed twice in 100 μL/well of assay buffer (in mM: 10 HEPES pH 7.3, 5 glucose, 140 Na-gluconate, 2.5 K-gluconate, 3.6 Ca-gluconate, 2 MgSO4, 0.1 Ouabain) to remove unloaded dye. Cells were incubated in 50 μL of assay buffer before loading onto a FLIPR system (Molecular Devices, Sunnyvale, Calif.). Various concentrations of compounds to be assayed were added to the cells in 50 μL of assay buffer and incubated for 4 minutes. The fluorescence signal was initiated by adding 100 μL of assay buffer containing 6 mM TlNO3 and 10 mM K2SO4. Fluors were excited using the 488-nm line of an argon laser and emission was filtered using a 540±30 nm bandpass filter. Fluorescent signals were recorded for 3 minutes. Responses over baseline values were plotted versus concentrations of test compounds to obtain an EC50 value. The maximum response for each test compound was determined relative to the response produced at 10 μM by retigabine. The maximum response of retigabine at 10 μM was set at 100%.

T1 sequence (O43526 whole entry): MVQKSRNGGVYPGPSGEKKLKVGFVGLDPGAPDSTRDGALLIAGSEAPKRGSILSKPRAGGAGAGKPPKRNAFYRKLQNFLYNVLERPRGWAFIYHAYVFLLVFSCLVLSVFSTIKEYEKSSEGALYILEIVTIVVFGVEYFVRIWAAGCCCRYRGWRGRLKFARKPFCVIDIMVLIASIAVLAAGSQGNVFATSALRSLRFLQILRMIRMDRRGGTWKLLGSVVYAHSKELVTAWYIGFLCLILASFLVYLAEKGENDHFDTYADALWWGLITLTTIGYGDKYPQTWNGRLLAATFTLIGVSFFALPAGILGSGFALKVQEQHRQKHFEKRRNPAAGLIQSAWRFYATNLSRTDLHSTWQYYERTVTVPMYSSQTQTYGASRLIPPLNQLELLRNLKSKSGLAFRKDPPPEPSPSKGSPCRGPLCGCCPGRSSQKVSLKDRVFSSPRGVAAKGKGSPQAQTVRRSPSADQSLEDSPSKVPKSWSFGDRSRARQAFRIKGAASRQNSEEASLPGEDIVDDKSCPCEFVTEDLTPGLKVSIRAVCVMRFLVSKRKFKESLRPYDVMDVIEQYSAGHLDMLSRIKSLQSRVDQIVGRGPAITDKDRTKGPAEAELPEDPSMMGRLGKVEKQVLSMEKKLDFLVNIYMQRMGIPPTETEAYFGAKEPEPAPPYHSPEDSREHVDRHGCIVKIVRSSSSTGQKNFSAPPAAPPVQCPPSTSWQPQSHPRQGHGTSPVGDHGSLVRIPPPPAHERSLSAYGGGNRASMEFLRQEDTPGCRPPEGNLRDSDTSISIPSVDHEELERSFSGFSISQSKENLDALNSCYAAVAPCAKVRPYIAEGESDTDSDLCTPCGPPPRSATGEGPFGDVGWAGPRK
T1 sequence (O43525 whole entry): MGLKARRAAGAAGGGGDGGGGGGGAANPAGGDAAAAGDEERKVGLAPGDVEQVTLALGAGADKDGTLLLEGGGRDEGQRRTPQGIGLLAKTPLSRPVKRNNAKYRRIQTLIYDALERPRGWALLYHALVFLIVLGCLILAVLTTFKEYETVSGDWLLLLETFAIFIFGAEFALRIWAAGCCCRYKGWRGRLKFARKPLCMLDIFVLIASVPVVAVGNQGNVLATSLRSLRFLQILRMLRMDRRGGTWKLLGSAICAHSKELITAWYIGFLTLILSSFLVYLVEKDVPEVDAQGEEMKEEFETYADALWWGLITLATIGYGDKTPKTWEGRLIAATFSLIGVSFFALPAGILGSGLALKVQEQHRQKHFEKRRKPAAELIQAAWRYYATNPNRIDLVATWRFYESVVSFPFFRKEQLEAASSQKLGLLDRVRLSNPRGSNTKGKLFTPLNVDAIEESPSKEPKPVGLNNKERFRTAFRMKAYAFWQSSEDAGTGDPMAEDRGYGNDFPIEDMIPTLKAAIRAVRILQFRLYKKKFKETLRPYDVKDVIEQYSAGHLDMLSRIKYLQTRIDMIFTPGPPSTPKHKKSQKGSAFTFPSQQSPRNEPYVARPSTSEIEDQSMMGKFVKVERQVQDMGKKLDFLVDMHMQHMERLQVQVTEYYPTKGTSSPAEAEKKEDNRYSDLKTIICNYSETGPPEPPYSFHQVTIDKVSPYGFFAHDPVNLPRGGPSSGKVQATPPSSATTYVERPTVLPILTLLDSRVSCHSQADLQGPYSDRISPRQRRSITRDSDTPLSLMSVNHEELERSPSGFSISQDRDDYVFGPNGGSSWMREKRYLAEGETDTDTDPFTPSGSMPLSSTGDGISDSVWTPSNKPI

Emax	EC50	Max response (maximum response relative to response of retigabine at 10 μM set at 100%)	Compound
99.2%	2230 nM	–	CC(C)c1nc2ccccc2c(=O)n1NC(=O)[C@H]1C[C@@H]2C=C[C@H]1C2 (racemic) [Example 32, (±)-(exo)-N-(2-isopropyl-4-oxoquinazolin-3(4H)-yl)bicyclo[2.2.1]hept-5-ene-2-carboxamide]
136%	16.7 nM	–	CC(C)c1nc2ccccc2c(=O)n1NC(=O)CC1CC2CCC1C2 (single isomer, unassigned; (-)) [Example 29, (−)-exo-2-[bicyclo[2.2.1]hept-2-yl]-N-(2-isopropyl-4-oxoquinazolin-3(4H)-yl)acetamide]
145%	30.7 nM	–	O=C(C[C@H]1C[C@@H]2CC[C@H]1C2)Nn1c(C2CC2)nc2cc(F)ccc2c1=O (racemic) [Example 61, (±)-2-[(exo)-bicyclo[2.2.1]hept-2-yl]-N-(2-cyclopropyl-7-fluoro-4-oxoquinazolin-3(4H)-yl)acetamide]
176%	535 nM	–	O=C(CC1CC2CCC1C2)Nn1c(-c2ccccc2)nc2ccccc2c1=O (racemic) [Example 12, (±)-exo-2-bicyclo[2.2.1]hept-2-yl-N-(4-oxo-2-phenylquinazolin-3(4H)-yl)acetamide]
11.6%	> 31600 nM	–	CCc1nc2ccccc2c(=O)n1NC(=O)[C@@H]1[C@H]2[C@@H]3CC[C@@H](C3)[C@@H]12 [Example 58, (exo,exo)-N-(2-ethyl-4-oxoquinazolin-3(4H)-yl)tricyclo[3.2.1.0^2,4]octane-3-carboxamide]
124%	115 nM	–	CCc1nc2ccccc2c(=O)n1NC(=O)CC12CC3CC(CC(C3)C1)C2 [Example 9, 2-(1-adamantyl)-N-(2-ethyl-4-oxoquinazolin-3(4H)-yl)acetamide]
140%	415 nM	–	CC(C)c1nc2ccccc2c(=O)n1NC(=O)[C@@H]1C[C@@H]2C=C[C@H]1C2 (racemic) [Example 31, (±)-(endo)-N-(2-isopropyl-4-oxoquinazolin-3(4H)-yl)bicyclo[2.2.1]hept-5-ene-2-carboxamide]
20.8%	> 30000 nM	–	Cc1nc2cc(Cl)ccc2c(=O)n1NC(=O)CC12CC3CC(CC(C3)C1)C2 [Example 35, 2-(1-adamantyl)-N-(7-chloro-2-methyl-4-oxoquinazolin-3(4H)-yl)acetamide]
9.51%	> 30000 nM	–	O=C(CC12CC3CC(CC(C3)C1)C2)Nn1cnc2sc(-c3ccccc3)cc2c1=O [Example 37, 2-(1-adamantyl)-N-(4-oxo-6-phenylthieno[2,3-d]pyrimidin-3(4H)-yl)acetamide]
79.7%	309 nM	–	O=C(CCC12CC3CC(CC(C3)C1)C2)Nn1c(-c2ccccc2)nc2ccccc2c1=O [Example 15, 3-(1-adamantyl)-N-(4-oxo-2-phenylquinazolin-3(4H)-yl)propanamide]
150%	417 nM	–	CCc1nc2ccccc2c(=O)n1NC(=O)C[C@@H]1C[C@@H]2CC[C@@H](C2)C1 [Example 55, endo 2-[bicyclo[3.2.1]oct-3-yl]-N-(2-ethyl-4-oxoquinazolin-3(4H)-yl)acetamide]
116%	250 nM	–	O=C(CC12CC3CC(CC(Cl)(C3)C1)C2)Nn1c(C2CC2)nc2cc(F)ccc2c1=O [Example 53]
19.6%	> 31600 nM	–	Cc1nc2sc3c(c2c(=O)n1NC(=O)CC12CC4CC(CC(C4)C1)C2)CCC3 [Example 45, 2-(1-adamantyl)-N-(2-methyl-4-oxo-6,7-dihydro-4H-cyclopenta[4,5]thieno[2,3-d]pyrimidin-3(5H)-yl)acetamide]
133%	116 nM	–	O=C(CC12CC3CC(CC(C3)C1)C2)Nn1cnc2ccccc2c1=O [Example 7, 2-(1-adamantyl)-N-(4-oxoquinazolin-3(4H)-yl)acetamide]
32.1%	261 nM	–	O=C(CC12CC3CC(CC(C3)C1)C2)Nn1cnc2ccc(Cl)cc2c1=O [Example 16, 2-(1-adamantyl)-N-(6-chloro-4-oxoquinazolin-3(4H)-yl)acetamide]
88.8%	138 nM	–	CC(C)c1nc2ccccc2c(=O)n1NC(=O)CC1C2CC3CC(C2)CC1C3 (stereo not shown) [Example 1, 2-(2-adamantyl)-N-(2-isopropyl-4-oxoquinazolin-3(4H)-yl)acetamide]
–	47.7 nM	145%	CC(C)c1nc2ccccc2c(=O)n1NC(=O)CC1CC2CCC1C2 (single isomer, unassigned; (+)) [Example 30, (+)-exo-2-[bicyclo[2.2.1]hept-2-yl]-N-(2-isopropyl-4-oxoquinazolin-3(4H)-yl)acetamide]
17%	> 30000 nM	–	CC(C)c1nc2cc(-c3ccccc3F)sc2c(=O)n1NC(=O)CC1CC2CCC1C2 (racemic) [Example 41, (±)-2-[(exo)-bicyclo[2.2.1]hept-2-yl]-N-[6-(2-fluorophenyl)-2-isopropyl-4-oxothieno[3,2-d]pyrimidin-3(4H)-yl]acetamide]
140%	198 nM	–	O=C(Cc1ccc(Cl)cc1)Nn1c(C23CC4CC(CC2C4)C3)nc2ccccc2c1=O [Example 2, 2-(4-chlorophenyl)-N-(2-hexahydro-2,5-methanopentalen-3a(1H)-yl-4-oxoquinazolin-3(4H)-yl)acetamide]

Continued, molecule first:

Compound	Emax	EC50	Max response (maximum response relative to response of retigabine at 10 μM set at 100%)
O=C(Nn1c(-c2ccccc2)nc2ccccc2c1=O)[C@@H]1[C@H]2[C@@H]3CC[C@@H](C3)[C@@H]12 [Example 39, (exo,exo)-N-(4-oxo-2-phenylquinazolin-3(4H)-yl)tricyclo[3.2.1.0^2,4]octane-3-carboxamide]	-23.5%	> 30000 nM	–
Cc1sc2nc(C)n(NC(=O)CC34CC5CC(CC(C5)C3)C4)c(=O)c2c1C [Example 49, 2-(1-adamantyl)-N-(2,5,6-trimethyl-4-oxothieno[2,3-d]pyrimidin-3(4H)-yl)acetamide]	65.2%	779 nM	–
O=C(CC12CC3CC(CC(C3)C1)C2)Nn1cnc2ccc(Br)cc2c1=O [Example 36, 2-(1-adamantyl)-N-(6-bromo-4-oxoquinazolin-3(4H)-yl)acetamide]	10.8%	> 30000 nM	–
Cc1nc2sc3c(c2c(=O)n1NC(=O)CC12CC4CC(CC(C4)C1)C2)CCCCC3 [Example 48, 2-(1-adamantyl)-N-(2-methyl-4-oxo-6,7,8,9-tetrahydro-4H-cyclohepta[4,5]thieno[2,3-d]pyrimidin-3(5H)-yl)acetamide]	89.8%	10900 nM	–
CCc1nc2ccccc2c(=O)n1NC(=O)CC1C2CCCC1CCC2 (stereo not shown) [Example 57, 2-bicyclo[3.3.1]non-9-yl-N-(2-ethyl-4-oxoquinazolin-3(4H)-yl)acetamide]	148%	344 nM	–
Cc1nc2sc3c(c2c(=O)n1NC(=O)CC12CC4CC(CC(C4)C1)C2)CCCC3 [Example 44, 2-(1-adamantyl)-N-(2-methyl-4-oxo-5,6,7,8-tetrahydro[1]benzothieno[2,3-d]pyrimidin-3(4 H)-yl)acetamide]	81.8%	2010 nM	–
CC(=O)Nn1c(C23CC4CC(CC2C4)C3)nc2ccccc2c1=O [Example 4, N-(2-hexahydro-2,5-methanopentalen-3a(1H)-yl-4-oxoquinazolin-3(4H)-yl)acetamide]	60.4%	2720 nM	–
O=C(CC12CC3CC(CC(Cl)(C3)C1)C2)Nn1c(C2CC2)nc2ccccc2c1=O [Example 51, 2-[3-chloro-1-adamantyl]-N-(2-cyclopropyl-4-oxoquinazolin-3(4H)-yl)acetamide]	152%	160 nM	–
Cc1nc2ccccc2c(=O)n1NC(=O)CC12CC3CC(CC(C3)C1)C2 [Example 8, 2-(1-adamantyl)-N-(2-methyl-4-oxoquinazolin-3(4H)-yl)acetamide]	108%	684 nM	–
CC(C)c1nc2ccccc2c(=O)n1NC(=O)CC12CC3CC(CC(Cl)(C3)C1)C2 [Example 21, 2-[3-chloro-1-adamantyl]-N-(2-isopropyl-4-oxoquinazolin-3(4H)-yl)acetamide]	132%	403 nM	–
O=C(CC1CC2CCC1C2)Nn1cnc2ccccc2c1=O (racemic) [Example 10, (±)-exo-2-bicyclo[2.2.1]hept-2-yl-N-(4-oxoquinazolin-3(4H)-yl)acetamide]	131%	4950 nM	–
O=C(Nn1c(-c2ccccc2)nc2ccccc2c1=O)C1CC2CCC1C2 (racemic) [Example 23, (±)-endo-N-(4-oxo-2-phenylquinazolin-3(4H)-yl)bicyclo[2.2.1]heptane-2-carboxamide]	34.3%	540 nM	–
CC(C)c1nc2ccccc2c(=O)n1NC(=O)[C@@H]1C[C@@H]2CC[C@H]1C2 (racemic) [Example 22, (±)-endo-N-(2-isopropyl-4-oxoquinazolin-3(4H)-yl)bicyclo[2.2.1]heptane-2-carboxamide]	124%	404 nM	–
